Measured values as given in PMC8302598, “Rapid discovery of self-assembling peptides with one-bead one-compound peptide library” (Nature Communications, 2021).
“And” between values parts separate entries of the source, which are not always exact repeats. Identical values can stand only once. “Also recorded” adds a separate entry of the source.

Tests used:
HeLa cells [1] = experiment: Cell uptake efficiency by fluorescence of lysed cells; format: cell-based; conditions: HeLa cells incubated with peptides 4 h, fluorescence quantified
Method: and FGFDP entered lysosome and then escaped. The ISDNL escaped in 4 h, and FGFDP escaped between 1-2 h. Both ISDNL and FGFDP had capability of lysosomal escape, which may be useful for gene or nucleic acid delivery, as implied by the reviewer.
Figure R10. a. Time-dependent CLSM images for monitoring and quantitatively analyzing HeLa cells incubated with 50 μM pentapeptide nano-assembly of YFTEF, ISDNL, and FGFDP, b. corresponding co-localization analysis of experiment shown in “a”.
To confirm how efficient the peptides (YFTEF, ISDNL, and FGFDP) enter living cells, HeLa cells were incubated with peptides for 4 h, the cells were then lysed and fluorescence quantified to calculate the […]
Table R2. Cell uptake efficiency of peptides. […]
To elucidate the cell uptake pathways of pentapeptides, we quantified the fluorescence intensity of the HeLa cells after incubation with FITC-labeled nano-assembly of YFTEF, ISDNL, FAGFT, FGFDP, at 37 and 4 °C, respectively (3% of the peptide assembly were N-terminally labeled with FITC for tracking). There were nearly no uptake of pentapeptides by HeLa cells at 4 °C, which is consistent with mechanism of cell uptake by endocytosis. We have also examined the effects of cell uptake by various endocytosis inhibitors: amiloride (2 mM, inhibitor of endocytosis), M-β-CD (5 mM, inhibitor of caveolae-dependent endocytosis), and chlorpromazine (50 μM, inhibitor of clathrin-dependent endocytosis).
(1 picture or pasted object on this page, not shown here)

HeLa cells [2] = experiment: Time-dependent co-localization of FITC-labeled peptides with lysosomes (CLSM); format: cell-based; conditions: 50 μM; for Pearson correlation coefficient, peptide vs lysosomes, 2 h: peptide for 2 h; for Pearson correlation coefficient, peptide vs lysosomes, 4 h: peptide for 2 h and DMEM for 2 h; for Pearson correlation coefficient, peptide vs lysosomes, 8 h: peptide for 2 h and DMEM for 6 h
Method: Supplementary Figure 24. a) Time-dependent (2, 4, 8 h) CLSM images for monitoring and quantitatively analyzing uptake of fluorescent peptide assemblies (YFTEF, ISDNL, and FGFDP at 50 μM) by HeLa cells. The scale bar is 10 μm. b) Corresponding colocalization analysis of images from ‘a’. […]
Regarding the entrance of nanoparticles into HeLa cells, we have carried out additional experiments to address reviewer’s concern. To track the biodistribution of these peptides in the cytosol, peptides YFTEF, ISDNL and FGFDP were labeled by addition of FITC-labeled peptides (FITC-YFTEF, FITC-ISDNL, FITC-FGFDP) at 3% level, respectively, prior to self-assembly, and then incubated with HeLa cells for 2 h. The incubated cells were then washed with PBS three times and further incubated with Dulbecco's modified eagle medium without peptide for another 2 and 6 h. The lysosomes of the cells were stained with red fluorescence after 2 (peptide for 2 h), 4 (peptide for 2 h and DMEM for 2 h), or 8 h (peptide for 2 h and DMEM for 6 h) incubation, followed by CLSM observation.
For ISDNL, good co-localization (Pearson correlation coefficient: 0.92) between peptides and lysosomes […]
lysosomes (colocalization from 0.92 at 2 h, to 0.76 at 4 h and 0.69 at 8 h).
ISDNL based nanoparticles could escape from lysosomes over time.
For YFTEF, good co-localization (yellow fluorescence) between YFTEF (green fluorescence) and with […]
The co-localization efficiency for YFTEF and lysosomes remained high over time (4 h, 0.93; 8 h, 0.91).
For FGFDP, the Pearson correlation coefficient of lysosome was determined to be about 0.7 for 2 (0.74), 4 (0.79), 8 h (0.72). It seems that FGFDP might have escaped from lysosomes prior to the 2 h time point.
In order to confirm this hypothesis, we did the co-localization study at earlier time points: 30 min to 1 h.
The results reveal that FGFDP increased the distribution in the lysosome from 30 min (Pearson correlation coefficient: 0.59) to 1 h (Pearson correlation coefficient: 0.94), and then decreased to 0.74 at 2h. These […]
escape from lysosomes sometime between 1-2 h.

[3] = Appearance and TEM of 30 mM peptide in water; format: physicochemical; conditions: for Nanostructure under TEM: 30 mM in H2O; for Appearance of peptide in water: 30 mM in water, sonicated 3 min
Method: To further characterize these self-assembling peptides, we selected two positive peptides (FFVDF and YFTEF) and a negative control peptide (PFTTR) for the following studies: Fourier transform infrared (FT-IR) spectroscopy, UV−Vis spectra, and transmission electron microscopy (TEM).
Pentapeptides monomers were dissolved in DMSO at a concentration of 5.0 mM, followed by quick injection into water at a volume ratio of 1:99 for DMSO and H2O to obtain the nanomaterials solution (50 μM). For 30 mM pentapeptide solution, the pentapeptide was dissolved in water and sonicated for 3 min.
The pentapeptide solution with the concentration of 20 μM (10 μL) was placed dropwise onto a copper mesh for 5 min, then most of the liquid was removed through a filter paper. Ten microliters of uranyl acetate solution were employed to stain the samples for 5 min, followed by drying the spare liquid with the filter. Finally, the copper mesh was washed with 10 μL of deionized water, which was blotted after staining and drying at room temperature. All of the samples were observed by TEM (Tecnai G2 20 S-TWIN) at an accelerating voltage of 200 kV.

[4] = Turbidity test (transmittance spectra); format: physicochemical; conditions: 20 μM peptide in water
Method: To further confirm the peptide assembling in water, the solutions of pentapeptide were diluted to 20 μM for turbidity test.

[5] = FITC-labeled peptide/Lyso-Tracker co-localization

Cell uptake efficiency (HeLa cells [1])	Nanostructure under TEM [3]	Appearance of peptide in water [3]	Transmittance at 400 nm [4]	Substance	Pearson correlation coefficient, peptide vs lysosomes, 2 h (HeLa cells [2]; 3% FITC-labeled peptide)	Pearson correlation coefficient, peptide vs lysosomes, 4 h (HeLa cells [2])	Pearson correlation coefficient, peptide vs lysosomes, 8 h (HeLa cells [2])	Retention in lysosomes (HeLa cells [2]; [5])	Pearson correlation coefficient, peptide vs lysosomes, 30 min (HeLa cells [2]; 3% FITC-labeled peptide, 30 min)	Pearson correlation coefficient, peptide vs lysosomes, 1 h (HeLa cells [2]; 3% FITC-labeled peptide, 1 h)	Time of escape from lysosomes (HeLa cells [2]; [5])
2.2%				ISDNL [self-assembling pentapeptide identified from OBOC library]	0.92	0.76	0.69				
	entangled fibrous network	milky white solution	88%	FFVDF [self-assembling pentapeptide identified from OBOC library, forms nanofibers]							
3.9%	entangled fibrous network	milky hydrogel	98%	YFTEF [self-assembling pentapeptide identified from OBOC library]	0.92	0.93	0.91	remained in lysosomes at 8 h; also recorded: remained in lysosomes for 8 h without obvious escape			
4.8%				FGFDP [self-assembling pentapeptide identified from OBOC library]	0.74	0.79	0.72		0.59	0.94	1 to 2 h and ~1.5 h
